The assay addresses T1, RXFP1 (Homo sapiens, UniProt Q9HBX9).
T1 construct: OVCAR5 cells expressing endogenous RXFP1; endogenous in cells; host or cells: OVCAR5 cells
T1 sequence (Q9HBX9 1-757): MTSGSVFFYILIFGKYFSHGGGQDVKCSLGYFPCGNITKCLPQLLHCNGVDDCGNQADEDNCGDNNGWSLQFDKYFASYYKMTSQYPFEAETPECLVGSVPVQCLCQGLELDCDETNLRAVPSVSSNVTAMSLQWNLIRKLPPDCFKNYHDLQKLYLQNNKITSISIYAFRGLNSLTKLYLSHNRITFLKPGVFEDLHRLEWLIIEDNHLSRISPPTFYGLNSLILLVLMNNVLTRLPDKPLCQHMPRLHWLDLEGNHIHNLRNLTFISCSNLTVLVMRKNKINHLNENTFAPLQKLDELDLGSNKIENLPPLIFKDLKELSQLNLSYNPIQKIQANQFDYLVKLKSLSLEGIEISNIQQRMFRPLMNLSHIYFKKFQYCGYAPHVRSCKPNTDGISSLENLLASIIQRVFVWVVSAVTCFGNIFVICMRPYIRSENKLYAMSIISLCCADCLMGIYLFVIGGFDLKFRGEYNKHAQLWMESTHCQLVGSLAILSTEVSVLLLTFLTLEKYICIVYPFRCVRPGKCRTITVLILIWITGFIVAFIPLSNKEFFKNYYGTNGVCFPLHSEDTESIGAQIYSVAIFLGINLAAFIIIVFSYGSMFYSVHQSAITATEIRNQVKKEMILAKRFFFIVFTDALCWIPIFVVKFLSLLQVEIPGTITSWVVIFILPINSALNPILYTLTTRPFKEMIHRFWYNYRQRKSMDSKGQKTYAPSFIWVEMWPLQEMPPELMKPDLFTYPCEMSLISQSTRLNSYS
Kind of assay: OVCAR5 cAMP assay (HTRF), RXFP1 agonist activity. Type of assay: cell-based. The conditions noted are these: for Emax: OVCAR-5, maximal cAMP relative to H2-relaxin maximum (100%), read-out: EMax, OVCAR 5 cells (cAMP); for EC50: OVCAR5 cells, cAMP HTRF, read-out: EC50 (nM), OVCAR 5 cells (cAMP). Put shortly:
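cAMP accumulation readout: after 1 mM IBMX for 40 min, endogenous-RXFP1 OVCAR5 cells got rising peptide concentrations without FCS, 30 min, 37° C, then lysis with HTRF cAMP reagents. Nonlinear regression gave EC50; Emax expressed relative to H2-relaxin maximum, same occasion.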
(In general: Cyclic AMP is a second messenger, typically raised through Gs and lowered through Gi signalling.)

*1 amine or outer side, *2 acyl side, *3 side chain or, on linkers, in order; H or OH if unused. Where a SMILES comes first, the peptide text is derived from it. Side-chain parts run from the residue outwards. [ ]: non-standard residue; d: D form. The star is where a group is joined. PEG12 = NCCOCCOCCOCCOCCOCCOCCOCCOCCOCCOCCOCCOCCC(=O)O; γGlu = O=C(O)[C@H](CCC(=O)[*:2])N[*:1]; Pentadecanoyl = CCCCCCCCCCCCCCC(=O)*; Stearoyl = CCCCCCCCCCCCCCCCCC(=O)*; Myristoyl = CCCCCCCCCCCCCC(=O)*; PEG4 = NCCOCCOCCOCCOCCC(=O)O; αMeK = C[C@](N)(CCCCN)C(=O)O; Nle = CCCC[C@H](N)C(=O)O; AEEA = NCCOCCOCC(=O)O; Aib = CC(C)(N)C(=O)O

As for `CCCCCCCCCCCCCCCCCC(=O)N[C@@H](CCC(=O)N[C@@H](CCC(=O)N[C@@H](CCC(=O)NCCOCCOCCOCCOCCOCCOCCOCCOCCOCCOCCOCCOCCC(=O)NCCCC[C@H](NC(=O)[C@H](CCCCN)NC(=O)[C@H](CCCCN)NC(=O)[C@H](CCCNC(=N)N)NC(=O)C(C)(C)NC(=O)[C@H](CO)NC(=O)[C@H](Cc1c[nH]c2ccccc12)NC(=O)[C@@H](NC(=O)[C@H](CO)NC(=O)[C@H](CCCC)NC(=O)CNC(=O)[C@H](CCC(=O)O)NC(=O)C(C)(C)NC(=O)C(C)(C)NC(=O)[C@@H](NC(=O)[C@H](CCC(N)=O)NC(=O)[C@H](C)NC(=O)[C@H](CCCNC(=N)N)NC(=O)[C@@H](NC(=O)[C@H](CCCCN)NC(=O)[C@H](CCC(=O)O)NC(=O)[C@H](CCCNC(=N)N)NC(=O)CNC(=O)[C@H](CCC(=O)O)NC(=O)[C@H](CC(C)C)NC(C)=O)C(C)C)[C@@H](C)CC)[C@@H](C)O)C(N)=O)C(=O)O)C(=O)O)C(=O)O` [compound 97] (Ac-LEGREKVRAQI[Aib][Aib]EG[Nle]STWS[Aib]RKKK([PEG12-γGlu-γGlu-γGlu-Stearoyl])-NH2), the Emax (as a rule, the greatest response seen or fitted, relative to the assay's reference) was 98%.

For `CCCCCCCCCCCCCCC(=O)N[C@@H](CCC(=O)N[C@@H](CCC(=O)NCCCC[C@H](NC(=O)CC[C@H](NC(=O)CC[C@H](NC(=O)COCCOCCNC(=O)COCCOCCNC(=O)COCCOCCNC(=O)COCCOCCNC(=O)[C@H](CCCCNC(C)=O)NC(=O)[C@H](C)NC(=O)[C@H](CCCNC(=N)N)NC(=O)[C@](C)(CCCCN)NC(=O)[C@H](CO)NC(=O)[C@H](Cc1ccccc1)NC(=O)[C@@H](NC(=O)[C@H](CO)NC(=O)[C@H](CCC(N)=O)NC(=O)CNC(=O)[C@H](CCC(=O)O)NC(=O)C(C)(C)NC(=O)C(C)(C)NC(=O)[C@@H](NC(=O)[C@H](CCCCNC(C)=O)NC(=O)[C@H](C)NC(=O)[C@H](CCCNC(=N)N)NC(=O)[C@@H](NC(=O)[C@H](CCCCN)NC(=O)[C@H](CCC(=O)O)NC(=O)[C@H](CCCNC(=N)N)NC(=O)CNC(=O)[C@H](CCC(=O)O)NC(=O)[C@H](CC(C)C)NC(C)=O)C(C)C)[C@@H](C)CC)[C@@H](C)O)C(=O)O)C(=O)O)C(N)=O)C(=O)O)C(=O)O` [compound 186] (Ac-LEGREKVRAK(Ac)I[Aib][Aib]EGQSTFS[αMeK]RAK(Ac)[AEEA][AEEA][AEEA][AEEA][γGlu][γGlu]K([γGlu-γGlu-Pentadecanoyl])-NH2), the concentration for a half-maximal effect (EC50) (commonly the concentration that produces a half-maximal response) was found to be 0.18 nM and the maximal effect (Emax) was found to be 100%.

For the compound `CCCCCCCCCCCCCCCCCC(=O)N[C@@H](CCC(=O)N[C@@H](CCC(=O)N[C@@H](CCC(=O)NCCOCCOCC(=O)NCCOCCOCC(=O)NCCCC[C@H](NC(=O)[C@H](CCCCN)NC(=O)[C@H](CCCCN)NC(=O)[C@H](CCCNC(=N)N)NC(=O)C(C)(C)NC(=O)[C@H](CO)NC(=O)[C@H](Cc1c[nH]c2ccccc12)NC(=O)[C@@H](NC(=O)[C@H](CO)NC(=O)[C@H](CCCC)NC(=O)CNC(=O)[C@H](CCC(=O)O)NC(=O)C(C)(C)NC(=O)C(C)(C)NC(=O)[C@@H](NC(=O)[C@H](CCC(N)=O)NC(=O)[C@H](C)NC(=O)[C@H](CCCNC(=N)N)NC(=O)[C@@H](NC(=O)[C@H](CCCCN)NC(=O)[C@H](CCC(=O)O)NC(=O)[C@H](CCCNC(=N)N)NC(=O)CNC(=O)[C@H](CCC(=O)O)NC(=O)[C@H](CC(C)C)NC(C)=O)C(C)C)[C@@H](C)CC)[C@@H](C)O)C(N)=O)C(=O)O)C(=O)O)C(=O)O` [compound 71] (Ac-LEGREKVRAQI[Aib][Aib]EG[Nle]STWS[Aib]RKKK([AEEA-AEEA-γGlu-γGlu-γGlu-Stearoyl])-NH2), the Emax is 87%. Same read-out and setting: the same measure for `CCCCCCCCCCCCCCCCCC(=O)N[C@@H](CCC(=O)N[C@@H](CCC(=O)N[C@@H](CCC(=O)N[C@@H](CCC(=O)N[C@@H](CCC(=O)NCCCC[C@H](NC(=O)CCOCCOCCOCCOCCNC(=O)CCOCCOCCOCCOCCNC(=O)[C@H](CCCCN)NC(=O)[C@H](CCCCN)NC(=O)[C@H](CCCCN)NC(=O)[C@H](CCCNC(=N)N)NC(=O)C(C)(C)NC(=O)[C@H](CO)NC(=O)[C@H](Cc1c[nH]c2ccccc12)NC(=O)[C@@H](NC(=O)[C@H](CO)NC(=O)[C@H](CCCC)NC(=O)CNC(=O)[C@H](CCC(=O)O)NC(=O)C(C)(C)NC(=O)C(C)(C)NC(=O)[C@@H](NC(=O)[C@H](CCC(N)=O)NC(=O)[C@H](C)NC(=O)[C@H](CCCNC(=N)N)NC(=O)[C@@H](NC(=O)[C@H](CCCCN)NC(=O)[C@H](CCC(=O)O)NC(=O)[C@H](CCCNC(=N)N)NC(=O)CNC(=O)[C@H](CCC(=O)O)NC(=O)[C@H](CC(C)C)NC(C)=O)C(C)C)[C@@H](C)CC)[C@@H](C)O)C(N)=O)C(=O)O)C(=O)O)C(=O)O)C(=O)O)C(=O)O` [compound 122] (Ac-LEGREKVRAQI[Aib][Aib]EG[Nle]STWS[Aib]RKKK[PEG4][PEG4]K([γGlu-γGlu-γGlu-γGlu-γGlu-Stearoyl])-NH2): 93%. As to `CCCCCCCCCCCCCCCCCC(=O)N[C@@H](CCC(=O)N[C@@H](CCC(=O)N[C@@H](CCC(=O)N[C@@H](CCC(=O)NCCOCCOCC(=O)NCCOCCOCC(=O)NCCOCCOCC(=O)NCCCC[C@H](NC(=O)[C@H](CCCCNC(C)=O)NC(=O)[C@H](CCCCN)NC(=O)[C@H](CCCNC(=N)N)NC(=O)C(C)(C)NC(=O)[C@H](CO)NC(=O)[C@H](Cc1c[nH]c2ccccc12)NC(=O)[C@@H](NC(=O)[C@H](CO)NC(=O)[C@H](CCCC)NC(=O)CNC(=O)[C@H](CCC(=O)O)NC(=O)C(C)(C)NC(=O)C(C)(C)NC(=O)[C@@H](NC(=O)[C@H](CCCCNC(C)=O)NC(=O)[C@H](C)NC(=O)[C@H](CCCNC(=N)N)NC(=O)[C@@H](NC(=O)[C@H](CCCCN)NC(=O)[C@H](CCC(=O)O)NC(=O)[C@H](CCCNC(=N)N)NC(=O)CNC(=O)[C@H](CCC(=O)O)NC(=O)[C@H](CC(C)C)NC(C)=O)C(C)C)[C@@H](C)CC)[C@@H](C)O)C(N)=O)C(=O)O)C(=O)O)C(=O)O)C(=O)O` [compound 128] (Ac-LEGREKVRAK(Ac)I[Aib][Aib]EG[Nle]STWS[Aib]RKK(Ac)K([AEEA-AEEA-AEEA-γGlu-γGlu-γGlu-γGlu-Stearoyl])-NH2), the 50% effective concentration (EC50) was 0.22 nM and the maximal response (Emax) was 91%. Taken in the same sequence, the figures for `CCCCCCCCCCCCCCCCCC(=O)N[C@@H](CCC(=O)NCCOCCOCC(=O)NCCOCCOCC(=O)N[C@@H](CCC(=O)N[C@@H](CCC(=O)NCCCC[C@H](NC(=O)[C@H](CCCCN)NC(=O)[C@H](CCCCN)NC(=O)[C@H](CCCNC(=N)N)NC(=O)C(C)(C)NC(=O)[C@H](CO)NC(=O)[C@H](Cc1c[nH]c2ccccc12)NC(=O)[C@@H](NC(=O)[C@H](CO)NC(=O)[C@H](CCCC)NC(=O)CNC(=O)[C@H](CCC(=O)O)NC(=O)C(C)(C)NC(=O)C(C)(C)NC(=O)[C@@H](NC(=O)[C@H](CCC(N)=O)NC(=O)[C@H](C)NC(=O)[C@H](CCCNC(=N)N)NC(=O)[C@@H](NC(=O)[C@H](CCCCN)NC(=O)[C@H](CCC(=O)O)NC(=O)[C@H](CCCNC(=N)N)NC(=O)CNC(=O)[C@H](CCC(=O)O)NC(=O)[C@H](CC(C)C)NC(C)=O)C(C)C)[C@@H](C)CC)[C@@H](C)O)C(N)=O)C(=O)O)C(=O)O)C(=O)O` [compound 105] (Ac-LEGREKVRAQI[Aib][Aib]EG[Nle]STWS[Aib]RKKK([γGlu-γGlu-AEEA-AEEA-γGlu-Stearoyl])-NH2) were 0.03 nM and 88%. Taken in the same sequence, the figures for `CCCCCCCCCCCCCC(=O)N[C@@H](CCC(=O)N[C@@H](CCC(=O)N[C@@H](CCC(=O)NCCOCCOCC(=O)NCCOCCOCC(=O)NCCOCCOCC(=O)NCCCC[C@H](NC(=O)[C@H](CCCCNC(C)=O)NC(=O)[C@H](CCCCN)NC(=O)[C@H](CCCNC(=N)N)NC(=O)C(C)(C)NC(=O)[C@H](CO)NC(=O)[C@H](Cc1c[nH]c2ccccc12)NC(=O)[C@@H](NC(=O)[C@H](CO)NC(=O)[C@H](CCCC)NC(=O)CNC(=O)[C@H](CCC(=O)O)NC(=O)C(C)(C)NC(=O)C(C)(C)NC(=O)[C@@H](NC(=O)[C@H](CCCCNC(C)=O)NC(=O)[C@H](C)NC(=O)[C@H](CCCNC(=N)N)NC(=O)[C@@H](NC(=O)[C@H](CCCCN)NC(=O)[C@H](CCC(=O)O)NC(=O)[C@H](CCCNC(=N)N)NC(=O)CNC(=O)[C@H](CCC(=O)O)NC(=O)[C@H](CC(C)C)NC(C)=O)C(C)C)[C@@H](C)CC)[C@@H](C)O)C(N)=O)C(=O)O)C(=O)O)C(=O)O` [compound 178] (Ac-LEGREKVRAK(Ac)I[Aib][Aib]EG[Nle]STWS[Aib]RKK(Ac)K([AEEA-AEEA-AEEA-γGlu-γGlu-γGlu-Myristoyl])-NH2) were 17.6 nM and 93%.

Source of the values: US10988523B2, “Modified lipidated Relaxin B chain peptides and their therapeutic use” (Sanofi, priority 2018, dated 2021).
